Read-outs that look alike come from different tables or passages of the source.
Experiments:
[1] = target: T1, AlkB-Fe^++ (E. coli AlkB demethylase) (Escherichia coli, UniProt P05050); experiment: Ligand binding to AlkB-Fe++ confined inside ClyA-AS nanopore, single-channel ionic current recording; settings: for L2B ΔIRES % (ligand-induced current enhancement from L2) / mean duration (toff) of ligand-induced events / koff −60 mV / kon −60 mV: −60 mV; for L2B ΔIRES % (ligand-induced current enhancement from L2): 150 mM NaCl, 15 mM Tris HCl pH 8.0, 28° C.; for L2B ΔIRES % (ligand-induced current enhancement from L2) / mean duration (toff) of ligand-induced events: ligand cis; for koff −60 mV / kon −60 mV: pH 8.0, 28° C.; for kon −60 mV: slope of event frequency vs concentration
T1 construct: made in house; host or cells: E. cloni EXPRESS BL21(DE3) E. coli
T1 sequence (P05050 with tags, fused parts or gaps): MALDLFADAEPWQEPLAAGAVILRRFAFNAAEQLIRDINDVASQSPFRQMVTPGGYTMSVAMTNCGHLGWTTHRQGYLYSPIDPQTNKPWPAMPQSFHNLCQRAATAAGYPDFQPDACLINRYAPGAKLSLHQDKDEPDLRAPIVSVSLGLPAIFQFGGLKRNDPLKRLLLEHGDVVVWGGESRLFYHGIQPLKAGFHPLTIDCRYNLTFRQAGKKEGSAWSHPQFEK
Method: The applied potential refers to the potential of the trans electrode. ClyA-AS nanopores were inserted into lipid bilayers from the cis compartment, which was connected to the ground electrode. The two compartments were separated by a 25 μm thick polytetrafluoroethylene film (Goodfellow Cambridge Limited) containing an orifice of ˜100 μm in diameter. The aperture was pretreated with ˜5 μl of 10% hexadecane in pentane and a bilayer was formed by the addition of ˜10 μL of 1,2-diphytanoyl-sn-glycero-3-phosphocholine (DPhPC) in pentane (10 mg/mL) to both electrophysiology chambers. Typically, the addition of 0.01-0.1 ng of oligomeric ClyA-AS to the cis compartment (0.5 mL) was sufficient to obtain a single channel. […] Electrical recordings were carried out in 150 mM NaCl, 15 mM Tris.HCl pH 8.0 (AlkB experiments) or 150 mM NaCl, 15 mM Tris.HCl pH 7.5 (DHFR experiments). The temperature of the recording chamber was maintained at 28° C. by water circulating through a metal case in direct contact with the bottom and sides of the chamber.
Electrical signals from planar bilayer recordings were amplified using an Axopatch 200B patch clamp amplifier (Axon Instruments) and digitized with a Digidata 1440 A/D converter (Axon Instruments). Data were recorded by using the Clampex 10.4 software (Molecular Devices) and the subsequent analysis was carried out with the Clampfit software (Molecular Devices). Electrical recordings were performed in 150 mM NaCl, 15 mM Tris.HCl pH 8.0 (AlkB) or pH 7.5 (DHFR) by applying a 2 kHz low-pass Bessel filter and a 10 kHz sampling rate. For further analysis traces were filtered digitally with a Bessel (8-pole) low-pass filter with a 50 Hz cut-off. Residual current values (IRES%) were calculated from blocked pore current values (IB) and open pore current values (IO) as IRES %=100*IB/IO. IB and IO were determined from Gaussian fits to all point current histograms (0.05 pA bin size) for at least 15 individual protein blockades. ΔIRES % values were calculated from IRES % using propagation of errors.
Current transitions from level 1 were analyzed with the “single-channel search” function in Clampfit. The detection threshold to collect the ligand-induced events for AlkB was set to 4 pA and events shorter than 10 ms were ignored. […] The resulting event dwell times (toff) and the time between events (ton) were binned together as cumulative distributions and fitted to a single exponential to retrieve the ligand-induced lifetimes (τoff) and the ligand-induced event frequencies (f=1/τon). The process of event collection was monitored manually. For AlkB, final values of τon and τoff were based on average values derived from at least 3 single channel experiments at each concentration. Each experiment analysed more than 8 AlkB blockades. At the low ligand concentrations (0.2 mM) about 100 ligand-binding events were measured. Otherwise more than 150 events were collected. […] Subsequently, the ton values were binned together as cumulative distributions and fitted to a single exponential fit to retrieve characteristic τon values. The values for koff represented in FIG. 2b and FIG. 4b were determined by taking the average±standard deviations of 1/toff of at least 3 single channel experiments. The values of the association rate constants (kon) were determined from the slope of the linear regression curves calculated from the dependency of the event frequencies (f=1/τon) on the ligand concentration (OriginLab, FIGS. 2b and 4b). Graphs were made with Origin (OriginLab Corporation) or Clampfit software (Molecular Devices).
9, 872-877; Bleijlevens, B. et al. (2012) Biochem. 2012, 51, 3334-3341].

N120D-AlkB-Fe^++ = target: T2, N120D-AlkB-Fe^++ (Escherichia coli, UniProt P05050, N120D); experiment: Ligand binding to N120D AlkB mutant confined inside ClyA-AS nanopore; parameters: species or system E. coli; settings: 7.2 mM 2-OG, N=4
T2 construct: additional alanine after the starting methionine (cloning residue, between Met1 and Leu2) (N); Strep-tag via glycine-serine-alanine linker (C); made in house; host or cells: pT7-SC1 plasmid; expression host not restated for the mutant
T2 sequence (P05050 1-216 N120D): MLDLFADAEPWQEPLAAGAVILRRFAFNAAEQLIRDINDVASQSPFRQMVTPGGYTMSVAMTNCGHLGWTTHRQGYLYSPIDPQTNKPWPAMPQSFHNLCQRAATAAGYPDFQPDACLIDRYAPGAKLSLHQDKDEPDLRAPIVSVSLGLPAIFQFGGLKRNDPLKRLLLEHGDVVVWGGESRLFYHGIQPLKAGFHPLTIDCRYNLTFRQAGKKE

SBD2 = SBD2 (Lactococcus lactis, UniProt Q9CES5); experiment: Glutamine binding to SBD2 inside type I ClyA-AS nanopore
SBD2, sequence (Q9CES5 entry or part of it): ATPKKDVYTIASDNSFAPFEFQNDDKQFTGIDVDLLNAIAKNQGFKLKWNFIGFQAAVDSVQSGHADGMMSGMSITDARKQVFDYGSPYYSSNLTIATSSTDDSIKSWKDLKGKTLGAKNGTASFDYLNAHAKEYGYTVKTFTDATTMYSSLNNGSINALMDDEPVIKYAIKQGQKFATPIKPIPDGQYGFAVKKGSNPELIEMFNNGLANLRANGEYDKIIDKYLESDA
Method: The interaction of SBD2 with glutamine was sampled using type I ClyA-AS nanopores at −100 mV. The addition of 72 nM of SBD2 induced a current blockade that fluctuated between two levels I (Ires %=63.6±0.3%, τ=256±5 ms, N=3) and level III (Ires %=61.0±0.2%, τ=145±13 ms, N=3). Protein blockades remained inside the nanopore for 3.9±0.7 s (mean±S.E., n=225). Rarely the current visited an additional ionic current level, Level II (Ires %=62.5±0.3%, τ=18±1 ms, n=856, N=3).
We studied ligand binding by stepwise addition of glutamine at concentrations ranging from 200 nM to 3 μM. […] Binding rates were determined from the lifetimes as described above. Upon linear fitting of the binding rate curve the glutamine binding rates from Level I and III were determined. […] The opening rate constant was determined by the intercept at zero koff=39.7 s^1.

Row | SMILES | L2B ΔIRES % (ligand-induced current enhancement from L2) [1] | mean duration (toff) of ligand-induced events [1] [s] | koff −60 mV [1] [s⁻¹] | kon −60 mV [1] | current transitions in N120D-AlkB-Fe++ blockades (N120D-AlkB-Fe^++) | Kd (SBD2) [nM] | kon (SBD2; read-out: kon, binding from Level I) [M⁻¹ s⁻¹] | kon (SBD2; read-out: kon, binding from Level II (so in the source)) [M⁻¹ s⁻¹] | koff (opening rate constant) (SBD2; −100 mV, intercept at zero) [s^1] | koff ([1]; pH 8, read-out: koff −60 mV) [s⁻¹] | kon ([1]; pH 8, read-out: kon −60 mV) [M⁻¹ s⁻¹]
1 | O=C(O)CCC(=O)O [SUC, succinate] | +2.1 ± 1.0% | 0.061 ± 0.011 | 16.6 ± 2.6 | 9.2 ± 1.3 × 10^2 s^−1 M^−1 | – | – | – | – | – | – | –
2 | O=C(O)CCC(=O)C(=O)O [2-OG, 2-oxoglutarate] | +1.7 ± 1.2% | 1.7 ± 0.5 | 0.66 ± 0.33 | 1.8 ± 0.3 × 10^3 s^−1 M^−1 | did not induce current transitions | – | – | – | – | – | –
3 | NC(=O)CC[C@H](N)C(=O)O [glutamine] | – | – | – | – | – | 1270 ± 140 | 3.7e+07 | 3.8e+07 | 39.7 | – | –
4 | O=C(O)CNC(=O)C(=O)O [N-OG, N-oxalylglycine] | +1.7 ± 1.0% | 1.8 ± 0.4 | – | – | – | – | – | – | – | 0.57 ± 0.1 | 1200 ± 300000

Source: US11169138B2, “Nanopores with internal protein adaptors” (priority 2015, dated 2021)
